Where two headings read alike, the source gives them in different places.
Columns and labels:
Phytophthora capsici = experiment: Activity against Phytophthora capsici, growth inhibition in nutrient broth (microtiter plate); format: cell-based
Method: Conidia of the fungus from cryogenic storage are directly mixed into nutrient broth (PDB potato dextrose broth). After placing a (DMSO) solution of test compound into a microtiter plate (96-well format), the nutrient broth containing the fungal spores is added. […] Table B4 to B21 gives the mean percent control relative to untreated.

Phytophthora infestans [1] = format: in vivo
Phytophthora infestans [2] = format: in vivo; conditions: Table B3; Chlorothalonil 1000 gai/ha; leaf area, four days after final application
Plasmopara viticola = experiment: Field activity against Plasmopara viticola on grapevine; format: in vivo; conditions: Table B2; Mandipropamid 93.75 gai/ha; bunches, ten days after sixth application
Source text: Merlot grapevines were cultivated in rows with 1 m between plants within the row, and 2 m spaces between rows. Treatment plots were defined with an 8 m^2 vertical area. The trial consisted of three replicates of the treatment list, with the positions of each treatment plot randomised within the replicate.
Test compounds were formulated and applied to the relevant treatment plots, using a backpack sprayer with a flat fan nozzle. The first application was made when the majority of plants were at growth stage BBCH 15 and following applications at 10-14 day intervals through to growth stage BBCH 79.
The first symptoms of the target pathogen Plasmopara viticola were observed between the second and third applications. Plants outside the trial area were inoculated to increase the disease pressure, but infection processes within the trial plots were natural. […]
Ten days after the sixth application, at growth stage BBCH 79, the fruit was assessed for infection by Plasmopara viticola. 50 bunches per plot were assessed, the scores given in table B2 are percent disease control relative to untreated, based on the mean percentage of bunches showing symptoms of infection across all three replicates of a treatment.

[3] = Table B20, Iprovalicarb 0.6250 ppm, no A-1.2 rate printed in the row

C[C@@]1(c2ccc(Oc3ccccc3)cc2)OC(=O)N(Nc2ccccc2)C1=O (racemic) [Famoxadone]
inhibition of growth at 0.1563 ppm (Phytophthora capsici; Phytophthora capsici, Table B19, Famoxadone 0.1563 ppm, read-out: % disease control): 16% | inhibition of growth at 0.3125 ppm (Phytophthora capsici; Phytophthora capsici, Table B19, Famoxadone 0.3125 ppm, read-out: % disease control): 16% | inhibition of growth at 0.625 ppm (Phytophthora capsici; Phytophthora capsici, Table B19, Famoxadone 0.6250 ppm, read-out: % disease control): 16% | inhibition of growth at 1.25 ppm (Phytophthora capsici; Phytophthora capsici, Table B19, Famoxadone 1.2500 ppm, read-out: % disease control): 16% | inhibition of growth at 2.5 ppm (Phytophthora capsici; Phytophthora capsici, Table B19, Famoxadone 2.5000 ppm, read-out: % disease control): 16% | inhibition of growth at 5 ppm (Phytophthora capsici; Phytophthora capsici, Table B19, Famoxadone 5.0000 ppm, read-out: % disease control): 25%

CCCCCCCCc1c(CC)nc2ncnn2c1N [Ametoctradin]
% disease control (Phytophthora capsici; Table B17, Ametoctradin 0.0063 ppm): 8% | % disease control (Phytophthora capsici; Table B17, Ametoctradin 0.0125 ppm): 8% | % disease control (Phytophthora capsici; Table B17, Ametoctradin 0.0250 ppm): 13% | % disease control (Phytophthora capsici; Table B17, Ametoctradin 0.0500 ppm): 30%

Cc1c(Br)c2ccc(F)cc2n1S(=O)(=O)c1ncn(S(=O)(=O)N(C)C)n1 [Amisulbrom]
% disease control (Phytophthora capsici; Table B16, Amisulbrom 0.0063 ppm): 5% | % disease control (Phytophthora capsici; Table B16, Amisulbrom 0.0125 ppm): 6% | % disease control (Phytophthora capsici; Table B16, Amisulbrom 0.0500 ppm): 24% | % disease control (Phytophthora capsici; Table B16, Amisulbrom 0.1000 ppm): 35%

CO/C=C(/C(=O)OC)c1ccccc1Oc1cc(Oc2ccccc2C#N)ncn1 [Azoxystrobin]
% disease control (Phytophthora capsici; Table B7, Azoxystrobin 0.0313 ppm): 23% | % disease control (Phytophthora capsici; Table B7, Azoxystrobin 0.0625 ppm): 23% | % disease control (Phytophthora capsici; Table B7, Azoxystrobin 0.1250 ppm): 62%

N#Cc1c(Cl)c(Cl)c(Cl)c(C#N)c1Cl [Chlorothalonil]
% disease control (Phytophthora infestans [1]; Table B1.3, Chlorothalonil 60 ppm): 6% | % disease control relative to untreated (Phytophthora infestans [2]): 4.3% | inhibition of growth at 0.0781 ppm (Phytophthora capsici; Phytophthora capsici, Table B5, Chlorothalonil 0.0781 ppm, read-out: % disease control): 24% | inhibition of growth at 0.1563 ppm (Phytophthora capsici; Phytophthora capsici, Table B5, Chlorothalonil 0.1563 ppm, read-out: % disease control): 24% | inhibition of growth at 0.3125 ppm (Phytophthora capsici; Phytophthora capsici, Table B5, Chlorothalonil 0.3125 ppm, read-out: % disease control): 23% | inhibition of growth at 0.625 ppm (Phytophthora capsici; Phytophthora capsici, Table B5, Chlorothalonil 0.6250 ppm, read-out: % disease control): 64%

CCNC(=O)NC(=O)/C(C#N)=N/OC [Cymoxanil]
inhibition of growth at 0.0625 ppm (Phytophthora capsici; Phytophthora capsici, Table B13, Cymoxanil 0.0625 ppm, read-out: % disease control): 0% | inhibition of growth at 0.125 ppm (Phytophthora capsici; Phytophthora capsici, Table B13, Cymoxanil 0.1250 ppm, read-out: % disease control): 10% | inhibition of growth at 0.25 ppm (Phytophthora capsici; Phytophthora capsici, Table B13, Cymoxanil 0.2500 ppm, read-out: % disease control): 0% | inhibition of growth at 0.5 ppm (Phytophthora capsici; Phytophthora capsici, Table B13, Cymoxanil 0.5000 ppm, read-out: % disease control): 11% | inhibition of growth at 1 ppm (Phytophthora capsici; Phytophthora capsici, Table B13, Cymoxanil 1.0000 ppm, read-out: % disease control): 8% | inhibition of growth at 2 ppm (Phytophthora capsici; Phytophthora capsici, Table B13, Cymoxanil 2.0000 ppm, read-out: % disease control): 36%

COc1ccc(C(=CC(=O)N2CCOCC2)c2ccc(Cl)cc2)cc1OC [Dimetomorph]
inhibition of growth at 0.0031 ppm (Phytophthora capsici; Phytophthora capsici, Table B10, Dimetomorph 0.0031 ppm, read-out: % disease control): 0% | inhibition of growth at 0.0063 ppm (Phytophthora capsici; Phytophthora capsici, Table B10, Dimetomorph 0.0063 ppm, read-out: % disease control): 14% | inhibition of growth at 0.0125 ppm (Phytophthora capsici; Phytophthora capsici, Table B10, Dimetomorph 0.0125 ppm, read-out: % disease control): 0% | inhibition of growth at 0.1 ppm (Phytophthora capsici; Phytophthora capsici, Table B10, Dimetomorph 0.1000 ppm, read-out: % disease control): 28%

N#Cc1sc2c(=O)c3ccccc3c(=O)c=2sc1C#N [Dithianon]
inhibition of growth at 0.125 ppm (Phytophthora capsici; Phytophthora capsici, Table B6, Dithianon 0.1250 ppm, read-out: % disease control): 0% | inhibition of growth at 0.25 ppm (Phytophthora capsici; Phytophthora capsici, Table B6, Dithianon 0.2500 ppm, read-out: % disease control): 7% | inhibition of growth at 0.5 ppm (Phytophthora capsici; Phytophthora capsici, Table B6, Dithianon 0.5000 ppm, read-out: % disease control): 8% | inhibition of growth at 1 ppm (Phytophthora capsici; Phytophthora capsici, Table B6, Dithianon 1.0000 ppm, read-out: % disease control): 25%

CSC1=N[C@@](C)(c2ccccc2)C(=O)N1Nc1ccccc1 [Fenamidone]
inhibition of growth at 0.0031 ppm (Phytophthora capsici; Phytophthora capsici, Table B18, Fenamidone 0.0031 ppm, read-out: % disease control): 12% | inhibition of growth at 0.0063 ppm (Phytophthora capsici; Phytophthora capsici, Table B18, Fenamidone 0.0063 ppm, read-out: % disease control): 4% | inhibition of growth at 0.0125 ppm (Phytophthora capsici; Phytophthora capsici, Table B18, Fenamidone 0.0125 ppm, read-out: % disease control): 41% | inhibition of growth at 0.025 ppm (Phytophthora capsici; Phytophthora capsici, Table B18, Fenamidone 0.0250 ppm, read-out: % disease control): 54%

O=[N+]([O-])c1cc(C(F)(F)F)c(Cl)c([N+](=O)[O-])c1Nc1ncc(C(F)(F)F)cc1Cl [Fluazinam]
inhibition of growth at 0.0625 ppm (Phytophthora capsici; Phytophthora capsici, Table B11, Fluazinam 0.0625 ppm, read-out: % disease control): 4% | inhibition of growth at 0.125 ppm (Phytophthora capsici; Phytophthora capsici, Table B11, Fluazinam 0.1250 ppm, read-out: % disease control): 10% | inhibition of growth at 0.25 ppm (Phytophthora capsici; Phytophthora capsici, Table B11, Fluazinam 0.2500 ppm, read-out: % disease control): 0% | inhibition of growth at 0.5 ppm (Phytophthora capsici; Phytophthora capsici, Table B11, Fluazinam 0.5000 ppm, read-out: % disease control): 14%

O=C(NCc1ncc(C(F)(F)F)cc1Cl)c1c(Cl)cccc1Cl [Fluopicolid]
% disease control (Phytophthora capsici; Table B15, Fluopicolid 0.0625 ppm): 6% | % disease control (Phytophthora capsici; Table B15, Fluopicolid 0.1250 ppm): 59% | % disease control (Phytophthora capsici; Table B15, Fluopicolid 0.2500 ppm): 69% | % disease control (Phytophthora capsici; Table B15, Fluopicolid 0.5000 ppm): 79%

O=C1c2ccccc2C(=O)N1SC(Cl)(Cl)Cl [Folpet]
% disease control (Phytophthora infestans [1]; Table B1.2, Folpet 20 ppm): 0% | % disease control (Phytophthora infestans [1]; Table B1.2, Folpet 60 ppm): 33% | inhibition of growth at 0.0313 ppm (Phytophthora capsici; Phytophthora capsici, Table B12, Folpet 0.0313 ppm, read-out: % disease control): 17% | inhibition of growth at 0.0625 ppm (Phytophthora capsici; Phytophthora capsici, Table B12, Folpet 0.0625 ppm, read-out: % disease control): 11% | inhibition of growth at 0.125 ppm (Phytophthora capsici; Phytophthora capsici, Table B12, Folpet 0.1250 ppm, read-out: % disease control): 19% | inhibition of growth at 0.25 ppm (Phytophthora capsici; Phytophthora capsici, Table B12, Folpet 0.2500 ppm, read-out: % disease control): 19%

CCO[PH](=O)[O-].CCO[PH](=O)[O-].CCO[PH](=O)[O-].[Al+3] [Fosethyl-Al]
% disease control (Phytophthora capsici; Table B21, Fosethyl-Al 0.3125 ppm): 8% | % disease control (Phytophthora capsici; Table B21, Fosethyl-Al 0.6250 ppm): 14% | % disease control (Phytophthora capsici; Table B21, Fosethyl-Al 1.2500 ppm): 14%

Cc1ccc(C(C)NC(=O)[C@@H](NC(=O)OC(C)C)C(C)C)cc1 (stereo partly shown) [Iprovalicarb]
% disease control (Phytophthora capsici; [3]): 91% | Expected action (Colby) (Phytophthora capsici; [3]): 66% | % disease control (Phytophthora capsici; Table B20, Iprovalicarb 1.2500 ppm): 18% | % disease control (Phytophthora capsici; Table B20, Iprovalicarb 2.5000 ppm): 0%

C#CCOc1ccc(CCNC(=O)C(OCC#C)c2ccc(Cl)cc2)cc1OC (stereo not shown) [Mandipropamid]
% disease control (Phytophthora infestans [1]; Table B1.1, Mandipropamid 0.06 ppm): 0% | % disease control (Phytophthora infestans [1]; Table B1.1, Mandipropamid 0.2 ppm): 0% | % disease control (Phytophthora infestans [1]; Table B1.1, Mandipropamid 0.6 ppm): 3% | % disease control relative to untreated (Plasmopara viticola): 17.3% | % disease control (Phytophthora capsici; Table B9, Mandipropamid 0.0003 ppm): 16% | % disease control (Phytophthora capsici; Table B9, Mandipropamid 0.0006 ppm): 0% | % disease control (Phytophthora capsici; Table B9, Mandipropamid 0.0012 ppm): 0% | % disease control (Phytophthora capsici; Table B9, Mandipropamid 0.0025 ppm): 17% | % disease control (Phytophthora capsici; Table B9, Mandipropamid 0.0050 ppm): 13% | % disease control (Phytophthora capsici; Table B9, Mandipropamid 0.0100 ppm): 15%

COCC(=O)N(c1c(C)cccc1C)[C@H](C)C(=O)OC [Mefenoxam]
% disease control (Phytophthora capsici; Table B8, Mefenoxam 0.0031 ppm): 0% | % disease control (Phytophthora capsici; Table B8, Mefenoxam 0.0063 ppm): 13% | % disease control (Phytophthora capsici; Table B8, Mefenoxam 0.0125 ppm): 13% | % disease control (Phytophthora capsici; Table B8, Mefenoxam 0.0250 ppm): 28% | % disease control (Phytophthora capsici; Table B8, Mefenoxam 0.0500 ppm): 42%

CCC(C)(NC(=O)c1cc(Cl)c(C)c(Cl)c1)C(=O)CCl (stereo not shown) [Zoxamid]
inhibition of growth at 0.0063 ppm (Phytophthora capsici; Phytophthora capsici, Table B14, Zoxamid 0.0063 ppm, read-out: % disease control): 19% | inhibition of growth at 0.0125 ppm (Phytophthora capsici; Phytophthora capsici, Table B14, Zoxamid 0.0125 ppm, read-out: % disease control): 40% | inhibition of growth at 0.025 ppm (Phytophthora capsici; Phytophthora capsici, Table B14, Zoxamid 0.0250 ppm, read-out: % disease control): 48% | inhibition of growth at 0.05 ppm (Phytophthora capsici; Phytophthora capsici, Table B14, Zoxamid 0.0500 ppm, read-out: % disease control): 65%

Mancozeb
% disease control (Phytophthora capsici; Table B4, Mancozeb 0.3125 ppm): 3% | % disease control (Phytophthora capsici; Table B4, Mancozeb 0.6250 ppm): 1% | % disease control (Phytophthora capsici; Table B4, Mancozeb 1.2500 ppm): 0% | % disease control (Phytophthora capsici; Table B4, Mancozeb 2.5000 ppm): 0% | % disease control (Phytophthora capsici; Table B4, Mancozeb 5.0000 ppm): 1% | % disease control (Phytophthora capsici; Table B4, Mancozeb 10.0000 ppm): 1% | % disease control (Phytophthora capsici; Table B4, Mancozeb 20.0000 ppm): 0%
